The values that follow come from patent US11013696B2, “Lipids and lipid compositions for the delivery of active agents” (Novartis AG, priority 2013, dated 2021).

Data set [1] relates to human leptin. The experiment in a line: Human leptin in mouse plasma (ELISA) after subcutaneous injection of encapsulated leptin mRNA. In kind it is in vivo. The conditions noted are these: hLeptin, 0.2 mpk. (In general: ELISA stands for enzyme-linked immunosorbent assay.)
The nature of data set [2]: Particle size and PDI of lipid nanoparticles by dynamic light scattering (Malvern Zetasizer). Format: physicochemical. The source says:
The lipid nanoparticles have a size of about 1 to about 2,500 nm, about 10 to about 1,500 nm, about 20 to about 1,000 nm, in a sub-embodiment about 50 to about 600 nm, in a sub-embodiment about 50 to about 400 nm, in a sub-embodiment about 50 to about 250 nm, and in a sub-embodiment about 50 to about 150 nm. Unless indicated otherwise, all sizes referred to herein are the average sizes (diameters) of the fully formed nanoparticle, as measured by dynamic light scattering on a Malvern Zetasizer. The nanoparticle sample is diluted in phosphate buffered saline (PBS) so that the count rate is approximately 200-400 kcts. The data is presented as a weighted average of the intensity measure.
Unless indicated otherwise, all PDIs referred to herein are the PDI of the fully formed nanoparticle, as measured by dynamic light scattering on a Malvern Zetasizer. The nanoparticle sample was diluted in phosphate buffered saline (PBS) so that the count rate was approximately 200-400 kcts. The data is presented in Table 3 as a weighted average of the intensity measure.
Unless indicated otherwise, all particle size measurements referred to in Table 3 are the Z-average particle size of the fully formed nanoparticle, as measured by dynamic light scattering on a Malvern Zetasizer. The nanoparticle sample was diluted in phosphate buffered saline (PBS) so that the count rate is approximately 200-400 kcts.

Data set [3] can be described thus: Particle size and polydispersity by DLS of RSV-F replicon LNPs. Format: physicochemical. As to the method: A self-replicating replicon encoding RSV F protein was administered to BALB/c mice, 8 animals per group, by bilateral intramuscular vaccinations (50 μL per leg) on days 0 and 21 with the replicon (0.1 and 1 ng) formulated as liposomes with the lipids described below. All liposomes tested were composed of 40% cationic lipid, 10% DSPC, 48% cholesterol and 2% PEG-DMG with similar amounts of RNA. The liposomes were all prepared using the same technique as described above.
% entrapment (% E), Concentration of RNA (Conc), particle size measured by DLS, and polydispersity reported by DLS of LNPs prepared with different cationic lipids
(Replicon systems follow genome replication, usually without infectious particles.)

The subject of data set [4] is human leptin. The data set is described as follows: Human leptin in mouse plasma (ELISA) after IV tail vein injection of encapsulated leptin mRNA. Format: in vivo. The conditions noted are these: hLeptin. How it is done:
Human leptin in mouse plasma was measured by ELISA. Antibodies purchased from the R&D Systems duoset (Cat #DY398E, part #840279 for capture antibody and part #840280 for detection antibody) were reconstituted using PBS and titered, again using PBS. The capture antibody was coated at 4 ug/ml in 30 ul/well on a white Nunc® Maxisorp 384 well plate (Cat #460372). After an overnight incubation at room temperature the capture antibody was aspirated and the plate blocked for 2 hours at room temperature with 90 ul/well of KPL milk blocker (Cat #50-82-00). Once the incubation was completed the plate was aspirated and recombinant standards and samples were added to the plate at 30 ul/well for 2 hours at 37° C. while shaking at 600 rpm. Sample/standard dilutions were made using casein sample diluent. Washing/aspiration 3 times with 100 ul/well followed, using Teknova plate wash solution (Cat #P1192). Next, detection antibody was diluted using casein detection antibody diluent to 12.5 ng/ml and added at 30 ul/well for 2 hours room temperature. After this incubation, the plate was washed again and a solution of poly-streptavidin-HRP (Cat #21140) at a 1:1250 dilution in HRP dilution buffer was added to each well (30 ul/well) and incubated for 30 minutes room temperature. A final wash/aspiration removed the HRP solution and a chemiluminescent substrate was added at 30 ul/well (Cat #1859678 & 1859679). The plate was quickly read using a SpectramaxM5 plate reader with a 50 ms integration time. The dynamic range of the ELISA is from 100-2,000 […] (6.25-125 pM) of human leptin. The assay is applicable to plasma from mice, rats and cynomolgus monkeys.
Before the tail vein injection, mouse body weights were recorded and diet weighted, with mice grouped according to their body weights. Mice were prepared by warming them under a heating lamp for ˜2 minutes, with the mice about 12 inches from heat lamp. […]
On day 0, animals were weighed and sorted according to average body weight. Mice were dosed, and food intake (FI) was recorded, on each of days 1-7 and days 9, 11, and 16.

Another data set has as its system Factor VII. The data set is described as follows: Mouse Factor VII dosing and plasma Factor VII activity assay (FVII siRNA LNP, IV). In kind it is in vivo. The conditions noted are these: 0.03 mpk, XXX mice. As to the method:
Female CD-1 mice were received from Harlan Labs and maintained on standard lab chow and water ad libitum. The animals weighed approximately 25 gr at time of dosing. Formulated Factor VII siRNA was administered as a single dose intravenously via the lateral tail vein. Approximately 48 hours after injection, the mice were euthanized by CO2 inhalation followed by exsanguination through the vena cava.
Plasma collected from injected mice was assayed for Factor VII enzyme activity using the Biophen FVII kit from Hyphen Biomedical (catalog number 221304). An assay standard curve was prepared using pooled plasma aliquots from the vehicle control animals. All samples were diluted to fall within the linear range of the standard curve and Factor VII activity relative to control plasma was reported.
Lipid nanoparticles comprising lipid compounds of formula (I) and the FVII siRNA duplex sequence listed above were tested in the Factor VII Activity Assay. The results of this assay are given in Table 34 below as a percent knock down of plasma Factor VII enzyme activity at a dose of 0.3 mg/kg and 0.03 mg/kg.

The mark [5] stands for this setting: RSV-F replicon LNP prepared for 1st IM.
The mark [6] stands for this setting: RSV-F replicon LNP prepared for 2nd IM.

On to `CCCCCCCCCCCCC(CCOC(=O)CCCCC(COC(=O)CCCCCCC)COC(=O)CCCCCCC)OC(=O)OCCCN(CC)CC` (stereo not shown) [Example 1, 2-(10-dodecyl-3-ethyl-8,14-dioxo-7,9,13-trioxa-3-azaoctadecan-18-yl)propane-1,3-diyl dioctanoate], for which the “Expression of protein following SC injection of encapsulated mRNA” value in the data set with human leptin [1] (C57) is recorded as 1.2 ng/mL; with human leptin [1] (ob/ob), 16.2 ng/mL. The PDI is recorded as 0.100 in data set [2] (FLuc mRNA LNP); 0.093 in data set [2] (Gluc mRNA LNP); 0.082 in data set [2] (hFIX mRNA LNP); 0.138 in data set [2] (hLep plasmid LNP); 0.071 in data set [2] (hLeptin mRNA LNP); 0.073 in data set [2] (mEPO mRNA LNP). The PDI was 0.135 in data set [2] (pDNA LNP), 0.105 in data set [3] (setting [5]) and 0.045 in data set [3] (setting [6]). The Size in data set [2] (FLuc mRNA LNP) was 108.8 nm; in data set [2] (Gluc mRNA LNP) it was 84.7 nm; in data set [2] (hFIX mRNA LNP), 95.5 nm; in data set [2] (hLep plasmid LNP) it was 109.8 nm; in data set [2] (hLeptin mRNA LNP) it was 128.1 nm; in data set [2] (mEPO mRNA LNP) it was 104.1 nm. The Size in data set [2] (pDNA LNP) is on record as 110 nm; in data set [3] (setting [5]), 139.1 nm; in data set [3] (setting [6]), 131.3 nm. The “Expression of protein following IV injection of encapsulated mRNA” value with human leptin [4] (0.4mpk, C57) is on record as 66.3 ng/mL.
Consider `CCCCC/C=C\C/C=C\CCCCCCCCC(CCC(=O)OC(COC(=O)CCCCCCC)COC(=O)CCCCCCC)OC(=O)OCCCN(C)C` (stereo not shown) [Example 94, 2-(((13Z,16Z)-4-(((3-(dimethylamino)propoxy)carbonyl)oxy)docosa-13,16-dienoyl)oxy)propane-1,3-diyl dioctanoate], for which the PDI in data set [2] (FLuc mRNA LNP) turned out to be 0.093; in data set [2] (FVII siRNA LNP), 0.073; in data set [2] (Gluc mRNA LNP), 0.113; in data set [2] (hFIX mRNA LNP), 0.079; in data set [2] (hLep plasmid LNP) it was 0.153; in data set [2] (hLeptin mRNA LNP), 0.101. For the same molecule, the values for the PDI in data set [2] (mEPO mRNA LNP) and in data set [2] (pDNA LNP) were 0.099 and 0.152, respectively. Further, the Size in data set [2] (FLuc mRNA LNP) was 129.2 nm; in data set [2] (FVII siRNA LNP), 122.6 nm; in data set [2] (Gluc mRNA LNP), 76.9 nm; in data set [2] (hFIX mRNA LNP), 148.3 nm; in data set [2] (hLep plasmid LNP), 109.8 nm; in data set [2] (hLeptin mRNA LNP), 119.1 nm. The Size in data set [2] (mEPO mRNA LNP) was determined as 108.5 nm; in data set [2] (pDNA LNP) it was 123.5 nm.
In data set [3] (setting [5]), `CCCCCCCCCC(=O)OCCC(CC(CCCCCCCC)CCCCCCCC)OC(=O)OCCCN(C)C` (stereo not shown) [Example 70, 3-(((3-(dimethylamino)propoxy)carbonyl)oxy)-5-octyltridecyl decanoate] came in with a PDI of 0.121 and a Size of 133.7 nm. In data set [3] (setting [6]), this molecule returned a PDI of 0.118 and a Size of 141.7 nm.
Take `CCCCC/C=C\C/C=C\CCCCCCCC(=O)OCC(COC(=O)CCCCCCC/C=C\C/C=C\CCCCC)OC(=O)CCC(CCCCCCCCCCCC)OC(=O)OCCCN(C)C` (stereo not shown) [Example 80, (9Z,9′Z,12Z,12′Z)-2-((4-(((3-(dimethylamino)propoxy)carbonyl)oxy)hexadecanoyl)oxy)propane-1,3-diyl bis(octadeca-9,12-dienoate)]: the PDI in data set [2] (FLuc mRNA LNP) turned out to be 0.085; in data set [2] (FVII siRNA LNP), 0.051; in data set [2] (mEPO mRNA LNP) it was 0.083. Further, the Size in data set [2] (FLuc mRNA LNP) is given as 193.5 nm; in data set [2] (FVII siRNA LNP), 97.3 nm; in data set [2] (mEPO mRNA LNP), 166.0 nm. In the data set with Factor VII, the “FVII knock-down following IV injection of encapsulated siRNA” value is recorded as 95%/0.03.
With `CCCCCCCCCCCCC(CCOC(=O)CCCCC(OCCCCCCCC)OCCCCCCCC)OC(=O)OCCCN(CC)CC` (stereo not shown) [Example 16, 3-(((3-(diethylamino)propoxy)carbonyl)oxy)pentadecyl 6,6-bis(octyloxy)hexanoate], in the data set with human leptin [1] (ob/ob), the “Expression of protein following SC injection of encapsulated mRNA” value is given as 8.4 ng/mL. Moreover, the PDI in data set [2] (FLuc mRNA LNP) came out at 0.145; in data set [2] (FVII siRNA LNP), 0.075; in data set [2] (Gluc mRNA LNP), 0.145; in data set [2] (hFIX mRNA LNP) it was 0.141; in data set [2] (hLep plasmid LNP), 0.155; in data set [2] (hLeptin mRNA LNP), 0.103. Moreover, the PDI in data set [2] (mEPO mRNA LNP) amounted to 0.112; in data set [2] (pDNA LNP), 0.128. Further, the Size in data set [2] (FLuc mRNA LNP) amounted to 106.7 nm; in data set [2] (FVII siRNA LNP), 95.7 nm; in data set [2] (Gluc mRNA LNP), 106.7 nm; in data set [2] (hFIX mRNA LNP) it was 102.6 nm; in data set [2] (hLep plasmid LNP), 102.6 nm; in data set [2] (hLeptin mRNA LNP), 122.6 nm. The results for the Size in data set [2] (mEPO mRNA LNP) and in data set [2] (pDNA LNP) were 83.2 nm and 101.6 nm, respectively. The “Expression of protein following IV injection of encapsulated mRNA” value in the data set with human leptin [4] (0.2 mpk, ob/ob) is given as 21.4 ng/mL.
For the molecule `CCCCCCCCCCCCC(CCOC(=O)CCCCC(OCC(CC)CCCC)OCC(CC)CCCC)OC(=O)OCCCN(CC)CC` (stereo not shown) [Example 18, 3-(((3-(diethylamino)propoxy)carbonyl)oxy)pentadecyl 6,6-bis((2-ethylhexyl)oxy)hexanoate], the PDI in data set [3] (setting [5]) was determined as 0.13; in data set [3] (setting [6]) it was 0.065. The Size in data set [3] (setting [5]) worked out at 132.2 nm; in data set [3] (setting [6]), 139.8 nm.
